Here are results for 17 molecules from BindingDB's records for doi:10.1021/acs.jnatprod.8b00507 (Chinese Academy of Sciences, 2019).

In general, IC50 refers to the concentration that gives 50% inhibition.

This data set can be described thus: Inhibition of P-gp in doxorubicin-resistant human MCF7/ADR cells assessed as reversal of doxorubicin resistance by measuring doxorubicin IC50 incubated for 48 hrs by MTT assay (Rvb = doxorubicin alone = 64.8 +/- 2.1 uM). Background: Tetrazolium assays rely on reduction of a dye to a coloured formazan, in cell work by metabolically active cells.

For the molecule `C=C1[C@H](O)[C@H]2[C@@H](OC(=O)c3ccccc3)[C@](C)(OC(C)=O)C[C@]2(O)[C@H](OC(C)=O)[C@@H](C)/C=C/C(C)(C)C(=O)[C@H](OC(C)=O)[C@H]1OC(C)=O`, the IC50 was found to be 20.6 µM.

In the case of `C=C1[C@H](OC(C)=O)[C@H]2[C@@H](OC(=O)c3ccccc3)[C@@H](C)C[C@]2(OC(C)=O)C(=O)[C@@H](C)/C=C/C(C)(C)C(=O)[C@H](O)[C@H]1OC(C)=O`, the IC50 worked out at 13.3 µM.

With `C=C1[C@H](OC(C)=O)[C@H]2[C@@H](OC(=O)c3ccccc3)[C@](C)(OC(C)=O)C[C@]2(O)C(=O)[C@@H](C)/C=C/C(C)(C)C(=O)[C@H](OC(C)=O)[C@H]1OC(=O)C(C)C`, the IC50 was 12.9 µM.

As for `C=C1[C@H](OC(C)=O)[C@H]2[C@@H](OC(=O)c3ccccc3)[C@@H](C)C[C@]2(O)C(=O)[C@@H](C)/C=C/C(C)(C)C(=O)[C@H](O)[C@H]1OC(C)=O`, the IC50 is 25.3 µM.

`C=C1[C@H](OC(C)=O)[C@H]2[C@@H](OC(=O)c3ccccc3)[C@](C)(O)C[C@]2(O)C(=O)[C@@H](C)/C=C/C(C)(C)C(=O)[C@H](OC(C)=O)[C@H]1OC(=O)c1ccccc1`: the IC50 was found to be 7.8 µM.

As to `C=C1[C@H](O)[C@H]2[C@@H](OC(=O)c3ccccc3)[C@](C)(O)C[C@]2(O)[C@H](OC(C)=O)[C@@H](C)/C=C/C(C)(C)C(=O)[C@H](OC(C)=O)[C@H]1OC(=O)c1ccccc1`, the 50% inhibitory concentration (IC50) is 28 µM.

Regarding `C=C1[C@H](OC(C)=O)[C@H]2[C@@H](OC(=O)c3ccccc3)[C@@H](C)C[C@]2(OC(C)=O)C(=O)[C@@H](C)/C=C/C(C)(C)C(=O)[C@H](O)[C@H]1OC(=O)c1ccccc1`, the IC50 came to 9.5 µM.

Turning to `C=C1[C@H](OC(C)=O)CC(=O)C(C)(C)/C=C/[C@H](C)C(=O)[C@@]2(OC(C)=O)C[C@H](C)[C@H](OC(=O)c3ccccc3)[C@@H]2[C@H]1OC(C)=O`, the IC50 turned out to be 13.1 µM.

With `C=C1[C@H](OC(C)=O)[C@H]2[C@@H](OC(=O)c3ccccc3)[C@](C)(OC(C)=O)C[C@]2(O)C(=O)[C@@H](C)/C=C/C(C)(C)C(=O)[C@H](OC(=O)C(C)C)[C@H]1OC(C)=O`, the IC50 stood at 5.3 µM.

As to `C=C1[C@H](OC(C)=O)[C@H]2[C@@H](OC(=O)c3ccccc3)[C@](C)(O)C[C@]2(O)C(=O)[C@@H](C)/C=C/C(C)(C)C(=O)[C@H](OC(=O)C(C)C)[C@H]1OC(C)=O`, the IC50 was 5 µM.

Turning to `C=C1[C@H](OC(C)=O)[C@H]2[C@@H](OC(=O)CC(C)=O)[C@@H](C)C[C@]2(O)C(=O)[C@@H](C)/C=C/C(C)(C)C(=O)[C@H](OC(C)=O)[C@H]1OC(=O)c1ccccc1`, the IC50 turned out to be 10.3 µM.

`C=C1[C@H](OC(C)=O)[C@H]2[C@@H](OC(=O)c3ccccc3)[C@@H](C)C[C@]2(OC(C)=O)C(=O)[C@@H](C)/C=C/C(C)(C)C(=O)[C@H](OC(C)=O)[C@H]1OC(=O)c1ccccc1`: the IC50 came out at 8 µM.

On to `C=C1[C@H](OC(C)=O)[C@H]2[C@@H](OC(=O)c3ccccc3)[C@@H](C)C[C@]2(OC(C)=O)C(=O)[C@@H](C)/C=C/C(C)(C)C(=O)[C@H](OC(C)=O)[C@H]1OC(C)=O`, for which the IC50 was found to be 9.6 µM.

`C=C1[C@H](OC(=O)c2ccccc2)[C@H]2[C@@H](OC(C)=O)[C@@H](C)C[C@]2(OC(C)=O)C(=O)[C@@H](C)/C=C/C(C)(C)C(=O)[C@H](OC(=O)c2ccccc2)[C@H]1OC(C)=O`: the IC50 is 7.3 µM.

As to `C=C1[C@H](OC(C)=O)CC(=O)C(C)(C)/C=C/[C@H](C)C(=O)[C@@]2(OC(C)=O)C[C@H](C)[C@H](OC(C)=O)[C@@H]2[C@H]1OC(=O)c1ccccc1`, the IC50 is 14.2 µM.

Take `C=C1[C@H](OC(=O)c2ccccc2)[C@@H](OC(C)=O)[C@@H](OC(C)=O)C(C)(C)/C=C/[C@H](C)C(=O)[C@@]2(OC(C)=O)C[C@H](C)[C@H](OC(=O)c3ccccc3)[C@@H]2[C@H]1OC(C)=O`: the IC50 is 9.9 µM.

`C=C1[C@H](OC(=O)c2ccccc2)[C@H]2[C@@H](OC(C)=O)[C@@H](C)C[C@]2(OC(C)=O)C(=O)[C@@H](C)/C=C/C(C)(C)C(=O)[C@H](O)[C@H]1OC(C)=O`: the IC50 is 21.6 µM.
